Assay results published in US20260345510A1, “MEMBRANE COATED NANOPARTICLES FOR DRUG DELIVERY” (Arizona Board Regents on Behalf of Arizona State University, priority 2022, published 2026).

Tested on: PL-induced carotid atherosclerosis in the LCA
Test: Plaque development in partially ligated LCA (long-term experiment)
Format: in vivo, mouse (ApoE−/−)
Conditions: free drug counterpart, repeated doses, without photoactivation
From the text: All animal experiments performed in this study have been approved by the Institutional Animal Care and Use Committee (IACUC) of Arizona State University, USA. Male ApoE^−/− mice (8-12 weeks old), purchased from The Jackson Laboratory, were subjected to the partial ligation (PL) procedure to induce inflammation and carotid atherosclerosis in the left carotid artery (LCA). All mice were fed a high-fat diet (Envigo #TD.88137) for 1 week prior to the PL procedure and continued to be fed the same diet until the time of euthanasia. […] For biodistribution analysis, MoNP-DiD was administered via retro-orbital injection to mice that underwent the PL 1 week prior. The arterial tissue (from carotid bifurcation to abdominal aorta) and organs were harvested 4 hours after the injection, and DiD intensity was quantified for each of the three individual zones within the arterial segments using fluorescent imaging. Subsequently, the left common CA was embedded in Tissue-Tek O.C.T. compound, cryosectioned, and stained with a CD31 antibody (R&D Systems #AF3628) and DAPI. For organ assessment, various tissues (kidney, lung, heart, gut, liver, and spleen) and plasma were homogenized, and the fluorescent intensity in homogenized tissues was measured. […] Serum samples isolated from the mice were analyzed to determine their lipid profile and metabolic panel. […]

**Q.** For Verteporfin [free VP], which plaque sizes is on record?
**A.** The plaque sizes was “little-to-no effect on plaque sizes”.
